Source: PMC7011995, “Steroids interfere with human carbonic anhydrase activity by using alternative binding mechanisms” (Journal of Enzyme Inhibition and Medicinal Chemistry, 2018)
Read-outs that look alike come from different tables or passages of the source.

Assays:
Assay in all cases: stopped-flow CO2 hydration assay, phenol red
Format in all cases: biochemical
hCA I = molecular target: T1, hCA I (Homo sapiens, UniProt P00915)
T1 construct: gene CA1; recombinant, obtained in-house; cytosolic
T1 sequence (P00915 2-261): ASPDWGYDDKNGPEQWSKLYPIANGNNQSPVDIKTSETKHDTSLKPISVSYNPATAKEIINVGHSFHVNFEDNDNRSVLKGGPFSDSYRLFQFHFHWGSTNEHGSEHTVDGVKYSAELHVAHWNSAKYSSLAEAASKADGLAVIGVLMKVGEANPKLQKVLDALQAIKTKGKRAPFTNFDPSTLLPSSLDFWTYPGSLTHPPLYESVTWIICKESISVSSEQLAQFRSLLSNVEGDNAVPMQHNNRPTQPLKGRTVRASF
From the text: stopped-flow CO2 hydration assay, phenol red on hCA I

hCA II [1] = molecular target: T2, hCA II (Homo sapiens, UniProt P00918)
T2 construct: gene CA2; recombinant, obtained in-house; cytosolic
From the text: stopped-flow CO2 hydration assay, phenol red on hCA II

hCA IX [2] = molecular target: T3, hCA IX (Homo sapiens, UniProt Q16790)
T3 construct: gene CA9; recombinant, obtained in-house; tumor-associated transmembrane isoform
From the text: stopped-flow CO2 hydration assay, phenol red on hCA IX

hCA IV [3] = molecular target: T4, hCA IV (Homo sapiens, UniProt P22748); conditions: read-out: hCAI
T4 construct: gene CA4; recombinant, obtained in-house
T4 sequence (P22748 19-284): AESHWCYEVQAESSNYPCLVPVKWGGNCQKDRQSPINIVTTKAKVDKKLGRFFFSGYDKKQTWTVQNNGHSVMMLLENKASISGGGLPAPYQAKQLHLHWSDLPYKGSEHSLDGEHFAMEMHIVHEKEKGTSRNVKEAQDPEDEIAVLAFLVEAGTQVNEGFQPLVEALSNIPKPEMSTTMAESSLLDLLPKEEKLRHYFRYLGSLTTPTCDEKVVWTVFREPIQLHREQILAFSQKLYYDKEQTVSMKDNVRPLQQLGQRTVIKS

hCA IV [4] = molecular target: T4, hCA IV
From the text: stopped-flow CO2 hydration assay, phenol red on hCA IV

hCA II [5] = molecular target: T2, hCA II; conditions: read-out: hCAI
hCA IX [6] = molecular target: T3, hCA IX; conditions: read-out: hCAI

Row | Compound | Ki (hCA I; read-out: hCAI) [µM] | Ki (hCA II [1]; read-out: hCA II) [µM] | Ki (hCA IX [2]; read-out: hCA IX) [µM] | Ki (hCA IV [3]) [µM] | Ki (hCA IV [4]; read-out: hCA IV) [µM] | Ki (hCA II [5]) [µM] | Ki (hCA IX [6]) [µM] | Ki (hCA I) [µM] | Ki (hCA IV [4]) [µM] | Ki (hCA II [1]) [µM] | Ki (hCA IX [2]) [µM]
1 | C[C@H](CCC(=O)O)[C@H]1CC[C@H]2[C@@H]3[C@H](O)C[C@@H]4C[C@H](O)CC[C@]4(C)[C@H]3CC[C@]12C [compound 1, Chenodeoxycholic acid] | > 100 | 53.9 | 63 | > 100 | – | – | – | – | – | – | –
2 | C[C@H](CCC(=O)O)[C@H]1CC[C@H]2[C@@H]3[C@H](O)C[C@@H]4C[C@H](O)CC[C@]4(C)[C@H]3C[C@H](O)[C@]12C [compound 2, Cholic acid] | > 100 | 48.9 | 47.1 | > 100 | – | – | – | – | – | – | –
3 | C[C@H](CCC(=O)O)[C@H]1CC[C@H]2[C@@H]3CC[C@@H]4C[C@H](O)CC[C@]4(C)[C@H]3CC[C@]12C [compound 3, Lithocholic acid] | > 100 | 64.5 | 70.2 | > 100 | – | – | – | – | – | – | –
4 | C[C@H](CCC(=O)O)[C@H]1CC[C@H]2[C@@H]3CC[C@@H]4C[C@H](O)CC[C@]4(C)[C@H]3C[C@H](O)[C@]12C [compound 4, Deoxycholic acid] | > 100 | 51 | 55 | > 100 | – | – | – | – | – | – | –
5 | C[C@H](CCC(=O)O)[C@H]1CC[C@H]2[C@@H]3[C@@H](O)C[C@@H]4C[C@H](O)CC[C@]4(C)[C@H]3CC[C@]12C [compound 5, Ursodeoxycholic acid] | 95.9 | 71.4 | 73.1 | – | > 100 | – | – | – | – | – | –
6 | C[C@H](CCC(=O)NCC(=O)O)[C@H]1CC[C@H]2[C@@H]3[C@@H](O)C[C@@H]4C[C@H](O)CC[C@]4(C)[C@H]3CC[C@]12C [compound 6, Glycoursodeoxycholic acid] | > 100 | 78.4 | 89.9 | > 100 | – | – | – | – | – | – | –
7 | C[C@H](CCC(=O)NCCS(=O)(=O)O)[C@H]1CC[C@H]2[C@@H]3[C@@H](O)C[C@@H]4C[C@H](O)CC[C@]4(C)[C@H]3CC[C@]12C [compound 7, Tauroursodeoxycholic acid] | > 100 | 82.9 | 42.9 | > 100 | – | – | – | – | – | – | –
8 | C[C@H](CCC(=O)O)[C@H]1CC[C@H]2[C@@H]3C[C@H](O)[C@@H]4C[C@H](O)CC[C@]4(C)[C@H]3CC[C@]12C [compound 8, Hyodeoxycholic acid] | > 100 | 58.4 | 67.7 | > 100 | – | – | – | – | – | – | –
9 | C[C@H](CCC(=O)O)[C@H]1CC[C@H]2[C@@H]3[C@H](O)[C@H](O)[C@@H]4C[C@H](O)CC[C@]4(C)[C@H]3CC[C@]12C [compound 9, Hyocholic acid] | 83.3 | 38.9 | 71.9 | – | > 100 | – | – | – | – | – | –
10 | C[C@H](CCC(=O)O)[C@H]1CC[C@H]2[C@@H]3C(=O)C[C@@H]4CC(=O)CC[C@]4(C)[C@H]3CC(=O)[C@]12C [compound 10, Dehydrocholic acid] | > 100 | 57.8 | 53.9 | > 100 | – | – | – | – | – | – | –
11 | CC(C)CCC[C@@H](C)[C@H]1CC[C@H]2[C@@H]3CC=C4C[C@@H](O)CC[C@]4(C)[C@H]3CC[C@]12C [compound 11, Cholesterol] | > 100 | – | – | > 100 | – | > 100 | > 100 | – | – | – | –
12 | CC(C)CCC[C@@H](C)[C@H]1CC[C@H]2[C@@H]3CC[C@@H]4C[C@@H](O)CC[C@]4(C)[C@H]3CC[C@]12C [compound 12, Coprostan-3-ol] | > 100 | – | – | > 100 | – | > 100 | > 100 | – | – | – | –
13 | C[C@]12CC[C@H]3[C@@H](CCC4=CC(=O)CC[C@@]43C)[C@@H]1CC[C@@H]2O [compound 13, Testosterone] | – | – | – | – | – | – | – | > 100 | > 100 | > 100 | > 100
14 | C[C@]12CC[C@@H](O)C[C@@H]1CC[C@@H]1[C@@H]2CC[C@]2(C)C(=O)CC[C@@H]12 [compound 14, Androsterone] | – | – | – | – | – | – | – | > 100 | > 100 | > 100 | > 100
15 | C[C@]12CC[C@H](O)CC1=CC[C@@H]1[C@@H]2CC[C@]2(C)C(=O)CC[C@@H]12 [compound 15, Trans-dehydroandrosterone] | > 100 | – | – | > 100 | – | > 100 | > 100 | – | – | – | –
16 | C[C@]12CCC(=O)C[C@@H]1CC[C@@H]1[C@@H]2CC[C@]2(C)[C@@H](O)CC[C@@H]12 [compound 16, Androstanolone] | – | – | – | – | – | – | – | > 100 | > 100 | > 100 | > 100
17 | CC(=O)[C@H]1CC[C@H]2[C@@H]3CCC4=CC(=O)CC[C@]4(C)[C@H]3CC[C@]12C [compound 17, Progesterone] | > 100 | – | – | > 100 | – | > 100 | > 100 | – | – | – | –
18 | CC(=O)[C@H]1CC[C@H]2[C@@H]3CCC4=CC(=O)CC[C@]4(C)[C@H]3[C@H](O)C[C@]12C [compound 18, 11α-Hydroxyprogesterone] | > 100 | – | – | > 100 | – | > 100 | > 100 | – | – | – | –
19 | C[C@]12CC[C@@H]3c4ccc(O)cc4CC[C@H]3[C@@H]1CC[C@H]2O [compound 19, α-Estradiol] | 87.8 | 40.4 | 49.6 | – | > 100 | – | – | – | – | – | –
20 | C[C@]12CC[C@@H]3c4ccc(O)cc4CC[C@H]3[C@@H]1CCC2=O [compound 20, Estron] | > 100 | 50.8 | 71.4 | > 100 | – | – | – | – | – | – | –
21 | C[C@]12CCC(=O)C=C1CC[C@@H]1[C@@H]2[C@@H](O)C[C@@]2(C)[C@H]1CC[C@]2(O)C(=O)CO [compound 21, Hydrocortisone] | > 100 | – | – | > 100 | – | > 100 | > 100 | – | – | – | –
22 | C[C@@H]1CC[C@@]2(OC1)O[C@H]1C[C@H]3[C@@H]4CC=C5C[C@@H](O)CC[C@]5(C)[C@H]4CC[C@]3(C)[C@H]1[C@@H]2C [compound 22, Diosgenin] | > 100 | – | – | > 100 | – | > 100 | > 100 | – | – | – | –
